The record followed here is patent US20240197685A1, “SELECTIVE ANGIOTENSIN II RECEPTOR LIGANDS” (priority 2021, published 2024).

Data set [1] is described as follows: Metabolic stability in pooled human liver microsomes. In kind it is in vitro ADME. As to conditions: for half-life at 1 μM: human, pooled human liver microsomes, human liver microsomes 0.5 mg/mL, test compound 1 μM, 37° C.
The target of data set [2] is T1, human recombinant AT2 receptor (Homo sapiens, UniProt P50052).
T1 construct: Eurofins protocol ITEM26
T1 sequence (P50052 1-363): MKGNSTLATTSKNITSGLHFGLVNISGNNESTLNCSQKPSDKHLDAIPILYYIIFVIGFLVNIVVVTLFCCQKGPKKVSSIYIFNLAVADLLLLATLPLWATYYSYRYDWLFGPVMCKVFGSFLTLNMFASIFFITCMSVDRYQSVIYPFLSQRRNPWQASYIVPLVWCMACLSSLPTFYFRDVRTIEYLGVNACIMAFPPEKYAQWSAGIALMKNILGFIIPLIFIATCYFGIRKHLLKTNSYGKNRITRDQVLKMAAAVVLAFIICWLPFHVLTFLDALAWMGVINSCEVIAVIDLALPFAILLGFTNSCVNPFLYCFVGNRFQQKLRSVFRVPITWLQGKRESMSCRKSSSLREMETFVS
The experiment in a line: Binding to AT2 receptor, radiometric scintillation assay (Eurofins). As to conditions: for IC50: read-out: AT2 GraFit IC50; for Ki: seven-point dose-response curve, read-out: AT2R Ki.

Data set [3] deals with T2, human recombinant AT1 receptor (Homo sapiens, UniProt P30556).
T2 construct: Eurofins protocol ITEM24
T2 sequence (P30556 1-359): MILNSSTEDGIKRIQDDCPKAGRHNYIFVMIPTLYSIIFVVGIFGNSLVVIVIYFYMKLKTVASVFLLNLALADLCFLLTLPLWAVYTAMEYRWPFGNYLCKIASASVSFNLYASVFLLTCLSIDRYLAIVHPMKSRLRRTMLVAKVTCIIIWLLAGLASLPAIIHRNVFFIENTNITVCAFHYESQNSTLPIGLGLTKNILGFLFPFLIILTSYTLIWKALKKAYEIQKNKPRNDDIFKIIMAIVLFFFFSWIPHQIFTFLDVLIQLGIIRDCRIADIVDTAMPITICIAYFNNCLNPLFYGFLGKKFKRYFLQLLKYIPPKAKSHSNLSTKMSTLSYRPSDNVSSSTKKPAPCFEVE
The data set can be described thus: Binding to AT1 receptor, radiometric scintillation assay (Eurofins). As to conditions: single run; 1 and 10 μM; ligand 125I(sar1,Ile8)-AT-II.

The target of data set [4] is T3, CYP1A (Homo sapiens, UniProt P05177).
T3 construct: tissue Eurofins protocol ITEMG232; host or cells: human liver microsomes
T3 sequence (P05177 2-516 limits assumed): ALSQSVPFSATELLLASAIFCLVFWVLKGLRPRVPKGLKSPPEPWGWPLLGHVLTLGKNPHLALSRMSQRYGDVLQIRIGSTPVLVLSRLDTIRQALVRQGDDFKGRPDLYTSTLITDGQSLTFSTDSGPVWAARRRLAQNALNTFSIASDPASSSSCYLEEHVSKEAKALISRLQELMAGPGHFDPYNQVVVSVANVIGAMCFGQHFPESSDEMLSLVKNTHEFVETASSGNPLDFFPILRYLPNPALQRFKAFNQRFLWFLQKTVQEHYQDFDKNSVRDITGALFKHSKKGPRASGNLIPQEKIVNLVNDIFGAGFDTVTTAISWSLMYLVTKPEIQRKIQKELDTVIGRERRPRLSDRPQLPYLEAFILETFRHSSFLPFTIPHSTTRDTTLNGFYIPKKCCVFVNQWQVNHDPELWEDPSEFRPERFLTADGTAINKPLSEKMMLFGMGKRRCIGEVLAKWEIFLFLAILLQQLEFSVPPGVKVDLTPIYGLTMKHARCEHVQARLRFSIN
The experiment in a line: CYP inhibition, human liver microsomes. It counts as in vitro ADME. The settings on record: probe phenacetin, substrate phenacetin, read-out: CYP1A Inh %. For orientation: Microsomes from liver hold many membrane-bound enzymes, among them those of drug oxidation.

In data set [5] the target is T4, CYP2B6 (Homo sapiens, UniProt P20813).
T4 construct: tissue Eurofins protocol ITEMG232; host or cells: human liver microsomes
T4 sequence (P20813 1-491): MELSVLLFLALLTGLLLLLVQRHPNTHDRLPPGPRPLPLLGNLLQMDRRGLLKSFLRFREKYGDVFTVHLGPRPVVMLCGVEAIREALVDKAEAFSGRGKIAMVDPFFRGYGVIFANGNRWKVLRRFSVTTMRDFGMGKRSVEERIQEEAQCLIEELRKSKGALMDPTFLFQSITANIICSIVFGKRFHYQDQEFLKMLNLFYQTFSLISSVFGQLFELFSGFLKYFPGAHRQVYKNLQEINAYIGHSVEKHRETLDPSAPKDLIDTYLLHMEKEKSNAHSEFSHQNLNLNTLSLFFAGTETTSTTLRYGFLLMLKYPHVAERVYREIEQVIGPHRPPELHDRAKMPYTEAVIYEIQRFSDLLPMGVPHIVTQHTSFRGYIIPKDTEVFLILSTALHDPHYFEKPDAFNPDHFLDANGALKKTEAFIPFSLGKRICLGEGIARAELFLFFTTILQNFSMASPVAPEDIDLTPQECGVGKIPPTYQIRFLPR
The experiment in a line: CYP inhibition, human liver microsomes. As to conditions: probe bupropion, substrate bupropion, read-out: CYP2B6 Inh %. In kind it is in vitro ADME.

In data set [6] the target is T5, CYP2C19 (Homo sapiens, UniProt P33261).
T5 construct: tissue Eurofins protocol ITEMG232; host or cells: human liver microsomes
T5 sequence (P33261 whole entry): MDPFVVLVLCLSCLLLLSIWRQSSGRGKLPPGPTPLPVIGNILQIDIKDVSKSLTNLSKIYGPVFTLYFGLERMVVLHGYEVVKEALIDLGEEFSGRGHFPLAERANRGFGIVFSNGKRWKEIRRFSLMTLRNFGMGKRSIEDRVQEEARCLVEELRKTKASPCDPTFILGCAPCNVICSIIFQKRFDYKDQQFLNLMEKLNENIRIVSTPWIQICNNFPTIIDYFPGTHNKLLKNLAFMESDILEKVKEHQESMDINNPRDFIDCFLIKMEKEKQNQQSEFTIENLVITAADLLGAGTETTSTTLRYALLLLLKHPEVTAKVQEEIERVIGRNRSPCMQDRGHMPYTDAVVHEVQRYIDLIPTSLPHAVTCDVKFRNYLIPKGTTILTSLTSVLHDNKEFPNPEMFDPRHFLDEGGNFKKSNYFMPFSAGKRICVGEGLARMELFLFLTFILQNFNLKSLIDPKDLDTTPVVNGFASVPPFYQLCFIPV
The data set can be described thus: CYP inhibition, human liver microsomes. As to conditions: probe omeprazole, substrate omeprazole, read-out: CYP2C19 Inh %. It counts as in vitro ADME.

Data set [7] deals with T6, CYP2C8 (Homo sapiens, UniProt P10632).
T6 construct: tissue Eurofins protocol ITEMG232; host or cells: human liver microsomes
T6 sequence (P10632 1-490): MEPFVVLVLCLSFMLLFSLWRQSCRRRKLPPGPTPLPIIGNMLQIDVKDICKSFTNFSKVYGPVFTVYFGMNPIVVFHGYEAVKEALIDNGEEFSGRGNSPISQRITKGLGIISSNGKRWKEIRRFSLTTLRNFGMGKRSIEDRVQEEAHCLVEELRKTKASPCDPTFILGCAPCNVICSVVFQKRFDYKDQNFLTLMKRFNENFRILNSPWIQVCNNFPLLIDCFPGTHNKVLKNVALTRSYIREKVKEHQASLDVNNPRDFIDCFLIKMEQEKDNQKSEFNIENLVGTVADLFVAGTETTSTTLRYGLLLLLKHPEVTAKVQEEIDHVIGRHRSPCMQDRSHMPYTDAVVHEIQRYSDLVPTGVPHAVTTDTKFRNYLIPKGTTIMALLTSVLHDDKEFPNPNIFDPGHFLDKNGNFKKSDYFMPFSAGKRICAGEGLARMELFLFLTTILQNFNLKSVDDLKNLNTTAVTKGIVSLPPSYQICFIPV
The data set can be described thus: CYP inhibition, human liver microsomes. It counts as in vitro ADME. As to conditions: probe paclitaxel and amodiaquine, substrates paclitaxel and amodiaquine, read-out: CYP2C8 Inh %.

Data set [8] concerns the target T7, CYP2C9 (Homo sapiens, UniProt P11712).
T7 construct: tissue Eurofins protocol ITEMG232; host or cells: human liver microsomes
The data set can be described thus: CYP inhibition, human liver microsomes. It counts as in vitro ADME. As to conditions: for inhibition at 10 µM: probe diclofenac, substrate diclofenac, human liver microsomes, read-out: CYP2C9 Inh %.

Data set [9] deals with T8, CYP2D6 (Homo sapiens, UniProt P10635).
T8 construct: tissue Eurofins protocol ITEMG232; host or cells: human liver microsomes
T8 sequence (P10635 whole entry): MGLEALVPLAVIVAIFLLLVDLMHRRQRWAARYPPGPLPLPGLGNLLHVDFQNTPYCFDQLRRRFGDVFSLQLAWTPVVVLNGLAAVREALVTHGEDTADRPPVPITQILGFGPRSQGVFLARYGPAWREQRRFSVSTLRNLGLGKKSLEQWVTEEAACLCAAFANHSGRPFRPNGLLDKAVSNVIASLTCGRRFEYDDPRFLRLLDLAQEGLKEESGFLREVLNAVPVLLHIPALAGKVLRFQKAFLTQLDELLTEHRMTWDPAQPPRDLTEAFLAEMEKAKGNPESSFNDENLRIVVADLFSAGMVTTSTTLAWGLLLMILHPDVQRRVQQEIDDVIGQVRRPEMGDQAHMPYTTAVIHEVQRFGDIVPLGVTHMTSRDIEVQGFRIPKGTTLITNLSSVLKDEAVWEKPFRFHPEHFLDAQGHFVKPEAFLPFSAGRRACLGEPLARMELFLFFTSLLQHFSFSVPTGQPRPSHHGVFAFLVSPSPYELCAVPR
The experiment in a line: CYP inhibition, human liver microsomes. It counts as in vitro ADME. The settings on record: probe dextromethorphan, substrate dextromethorphan, read-out: CYP2D6 Inh %.

Data set [10] addresses T9, CYP3A4 (Homo sapiens, UniProt P08684).
T9 construct: tissue Eurofins protocol ITEMG232; host or cells: human liver microsomes
The experiment in a line: CYP inhibition, human liver microsomes. The settings on record: for inhibition at 10 µM: probe midazolam, substrate midazolam, human liver microsomes, read-out: CYP3A4 midazolam Inh %. In kind it is in vitro ADME.

Data set [11] relates to CYP3A4&5. The experiment in a line: CYP inhibition, human liver microsomes. In kind it is in vitro ADME. The settings on record: probe testosterone, substrate testosterone, read-out: CYP3A4&5 testosterone Inh %.
Setting [12] is: with 1 mM NADPH, read-out: T1/2, + NaDPH.
[13] abbreviates: without NADPH, read-out: T1/2, no NaDPH.
Setting [14] is: single run, 1, 10, 100 and 1000 nM, ligand 125I CGP 42112A.
Where [15] appears, read: found during development, background statement.

A word on the IC50: it is the concentration that inhibits the measured activity by half. In general, Ki refers to the dissociation constant of the complex between target and ligand, obtained from inhibition or displacement.

“And” between values parts separate entries of the source, which are not always exact repeats. Equal values may be shown once. Read-outs that look alike come from different tables or passages of the source. Some results are limits rather than exact numbers.

T9 sequence (P08684 whole entry): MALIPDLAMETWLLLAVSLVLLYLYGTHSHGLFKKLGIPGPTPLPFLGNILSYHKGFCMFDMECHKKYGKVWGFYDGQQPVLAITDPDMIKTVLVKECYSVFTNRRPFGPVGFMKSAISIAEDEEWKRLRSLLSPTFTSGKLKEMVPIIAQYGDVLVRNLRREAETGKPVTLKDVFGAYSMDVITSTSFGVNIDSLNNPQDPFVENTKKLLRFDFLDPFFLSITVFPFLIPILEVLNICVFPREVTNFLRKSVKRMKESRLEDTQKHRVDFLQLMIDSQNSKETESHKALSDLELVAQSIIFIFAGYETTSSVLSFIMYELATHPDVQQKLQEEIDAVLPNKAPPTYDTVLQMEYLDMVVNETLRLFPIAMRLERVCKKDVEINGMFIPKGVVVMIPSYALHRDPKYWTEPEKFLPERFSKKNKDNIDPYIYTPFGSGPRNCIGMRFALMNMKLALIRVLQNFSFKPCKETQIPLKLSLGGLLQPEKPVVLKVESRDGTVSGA
T7 sequence (P11712 whole entry): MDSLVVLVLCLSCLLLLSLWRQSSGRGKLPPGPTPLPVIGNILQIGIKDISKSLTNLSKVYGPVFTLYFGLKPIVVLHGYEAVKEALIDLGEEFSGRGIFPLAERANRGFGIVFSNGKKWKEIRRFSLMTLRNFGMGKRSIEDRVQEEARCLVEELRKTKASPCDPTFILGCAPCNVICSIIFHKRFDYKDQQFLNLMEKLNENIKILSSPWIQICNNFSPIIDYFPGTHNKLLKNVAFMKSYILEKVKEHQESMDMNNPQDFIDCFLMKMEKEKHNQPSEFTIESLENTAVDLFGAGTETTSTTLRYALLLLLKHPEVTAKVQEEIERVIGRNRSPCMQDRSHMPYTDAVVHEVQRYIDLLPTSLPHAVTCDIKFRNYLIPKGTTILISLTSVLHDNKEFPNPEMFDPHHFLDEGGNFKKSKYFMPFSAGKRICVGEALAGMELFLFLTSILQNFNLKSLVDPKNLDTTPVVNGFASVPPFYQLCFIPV

For `CC(C)Cc1cc(-c2ccc(Cn3ccnc3C(C)(C)C)c(F)c2)c(S(=O)(=O)NC(=O)NCc2ccccn2)s1` [Example 5, 1-[[3-[4-[(2-Tert-butylimidazol-1-yl)methyl]-3-fluoro-phenyl]-5-isobutyl-2-thienyl]sulfonyl]-3-(2-pyridylmethyl)urea], the half-life at 1 μM in data set [1] (setting [12]) and in [1] (setting [13]) was above 1 h throughout. Also, the half-maximal inhibitory concentration (IC50) was determined as 0.44 nM in data set [2] (setting [14]) and 1800 nM in [3]. In addition, the inhibition at 10 µM was 34.1% in data set [4]; 24.9% in [5]; 52.1% in [6]; 78.3% in [7]; 62.1% in [8]; 23.2% in data set [9]. Further, the inhibition at 10 µM in data set [10] is 43%; in data set [11], 18.9%.
For the compound `CCCCOC(=O)NS(=O)(=O)c1sc(CC(C)C)cc1-c1ccc(Cn2ccnc2)cc1` [Example C21, N-butyloxycarbonyl-3-(4-imidazol-1-ylmethylphenyl)-5-isobutylthiophene-2-sulfon-amide, reference compound], in [1] (setting [15]), the “metabolic hydrolysis (in words)” value was “rapidly hydrolysed to an inactive sulfonamide metabolite”. Moreover, the “inhibition of CYP 2C9 (in words)” value in data set [8] (setting [15]) was “potent inhibitor”. In addition, the “inhibition of CYP 3A4 (in words)” value in [10] (setting [15]) is listed as “potent inhibitor”.
For the compound `CC(C)Cc1cc(-c2ccc(Cn3ccnc3C(C)(C)C)cc2)c(S(=O)(=O)NC(=O)NCc2cccs2)s1` [Example 2], the half-life at 1 μM in [1] (setting [12]) was 0.533 h; in [1] (setting [13]), above 1 h. The IC50 was found to be 2.5 nM in [2] (mean average of the runs), 2.5 nM in [2] (setting [14]) and 2000 nM in [3]. Moreover, the Ki in data set [2] (ligand 125I CGP 42112A) turned out to be 1.25 nM. Moreover, the inhibition at 10 µM in data set [4] is -1.8%; in [5], 9.6%; in data set [6], 56.8%; in [7] it was 81.8%; in [8] it was 64.6%; in [9], 33.6%. The results for the inhibition at 10 µM in [10] and in data set [11] were 40.9% and 18%, respectively.
Turning to `CCNC(=O)NS(=O)(=O)c1sc(CC(C)C)cc1-c1ccc(Cn2ccnc2C(C)(C)C)c(F)c1` [Example 6, 1-[[3-[4-[(2-Tert-butylimidazol-1-yl)methyl]-3-fluoro-phenyl]-5-isobutyl-2-thienyl]sulfonyl]-3-ethyl-urea], the half-life at 1 μM in data set [1] (setting [12]) and in data set [1] (setting [13]) was above 1 h each time. Besides, the inhibition at 10 µM in [4] was determined as 15.8%; in [5], 27%; in data set [6], 35.1%; in data set [7], 77.6%; in data set [8], 39.7%; in data set [9] it was 18.8%. In addition, the inhibition at 10 µM in [10] is 23.8%; in data set [11] it was 10.8%.
With `CC(C)Cc1cc(-c2ccc(Cn3ccnc3C(C)(C)C)cc2)c(S(=O)(=O)NC(=O)NCc2ccccn2)s1` [Example 4], the half-life at 1 μM in data set [1] (setting [12]) and in data set [1] (setting [13]) was above 1 h each time. Besides, the IC50 in data set [2] (mean average of the runs) was 2.9 nM; in data set [2] (setting [14]), 3.7 nM and 2.1 nM; in [3], 3000 nM. The inhibition constant (Ki) in data set [2] (ligand 125I CGP 42112A) stood at 1.9 nM. In addition, the inhibition at 10 µM in data set [4] is -0.5%; in data set [5], 13.8%; in data set [6], 44.4%; in data set [7], 79.3%; in [8] it was 43.5%; in data set [9], 24.3%. The inhibition at 10 µM in [10] is 33.7%; in data set [11], 16.7%.
For `CC(C)Cc1cc(-c2ccc(Cn3ccnc3C(C)(C)C)cc2)c(S(=O)(=O)NC(=O)NCc2ccco2)s1` [Example 1, Furan-2-ylmethyl-3-[[5-isobutyl-3-[4-[(2-tert-butyl-imidazol-1-yl)methyl]phenyl]-2-thienyl]sulfonyl]urea], the half-life at 1 μM in [1] (setting [12]) and in data set [1] (setting [13]) was above 1 h in each case. Also, the 50% inhibitory concentration (IC50) in data set [2] (mean average of the runs) was 4.2 nM; in data set [2] (setting [14]) it was 2.6 nM and 5.7 nM; in data set [3], 3000 nM. The inhibition constant Ki in [2] (ligand 125I CGP 42112A) is 2.8 nM. The inhibition at 10 µM in data set [4] was -13.2%; in data set [5], 96.5%; in [6], 49.1%; in data set [7] it was 77.8%; in data set [8], 58.4%; in data set [9] it was 13.8%. Further, the values for the inhibition at 10 µM in [10] and in data set [11] were 11.6% and 11.8%, respectively.
For the compound `COCCNC(=O)NS(=O)(=O)c1sc(CC(C)C)cc1-c1ccc(Cn2ccnc2C(C)(C)C)cc1` [Example 3], the half-life at 1 μM in data set [1] (setting [12]) and in [1] (setting [13]) was above 1 h each time.
